Assay results reported in patent publication US10351577B2, “Ether analogues of galiellalactone” (Glactone Pharma Development AB, priority 2015, dated 2019).

Key:
LNCaP-IL6 [1] = experiment: WST-1 cell proliferation assay on IL-6 stimulated LNCaP; assay type: cell-based; details: for activity at 10 µM: Homo sapiens, LNCaP, 72 h, percent of untreated control cells, read-out: Remaining cell proliferation (%) LNCaP-IL6; for Difference in cell proliferation @ 10 μM (%) (Selectivity) Δ LNCaP − LNCaPIL6: LNCaP minus LNCaP-IL6
Procedure: (§1) The functional activity of the example compounds in comparison to galiellalactone was evaluated using a WST-1 proliferation assay (J. Biol. Chem. 2014, 289:15969-15978) on DU145, LNCaP or IL-6 stimulated LNCaP.
(§2) The cells were cultured in 96-well plates (2000 cells/well in 200 μl of medium) and allowed to set for 24 h. The cells were treated with 10 μM of an example compound or galiellalactone for 72 h. Samples were made in triplicate. 20 μl WST-1 solution (Roche Applied Science) was added per well and incubated at 37° C. for 4 h. The absorbance of each well was measured using a scanning multi-well spectrophotometer, ELISA reader at a wavelength of 450 nm and reference wavelength of 690 nm. The results presented in Tables 2 and 3 below are presented as percent of untreated control cells.

LNCaP = experiment: WST-1 cell proliferation assay on LNCaP; assay type: cell-based; details: Homo sapiens, 72 h, percent of untreated control cells, read-out: Remaining cell proliferation (%) LNCaP
Procedure: as §1, §2

STAT1 = STAT1 luciferase reporter gene assay in HeLa cells stimulated with IFNg; assay type: cell-based; details: Homo sapiens, M-HeLa, IFNg overnight
Procedure: In order to further asses the properties of the ether analogues of galiellalactone, the STAT1 activity was determined for some of the novel analogues.

DU145 [2] = experiment: WST-1 cell proliferation assay on DU145; assay type: cell-based; details: for activity at 10 µM: Homo sapiens, DU-145, 72 h, percent of untreated control cells, read-out: Remaining cell proliferation (%) DU145; for Difference in cell proliferation @ 10 μM (%) (Selectivity) Δ LNCaP − DU145: LNCaP minus DU145
Procedure: as §1, §2

DU145 [3] = experiment: WST-1 cell proliferation assay on DU145; assay type: cell-based; details: for IC50: Homo sapiens, DU-145, dose response study, DU145
LNCaP-IL6 [4] = experiment: WST-1 cell proliferation assay on IL-6 stimulated LNCaP; assay type: cell-based; details: Homo sapiens, dose response study
[5] = Comparative pharmacokinetic study, single oral dose, plasma by LC-MS/MS; assay type: in vivo; details: mouse, CD1 mice, single oral gavage 10 mg/kg
Procedure: A pharmacokinetic study was performed in CD1 mice to establish plasma exposure following administration of single oral doses of galiellalactone and example 20. Sample analysis was by LC-MS/MS.
Dose solutions were prepared at a drug concentration of 0.5 mg/mL in 5% DMSO in 50 mM citrate buffer (citric acid/sodium citrate pH 4.0) and administered as a 20 mL/kg oral gavage (10 mg/kg).
AUC denotes the plasma exposure of the compound measured with time. More specifically, AUC 0-t is the area under the plasma drug concentration/time curve from 0 minutes to last quantifiable data point. AUC 0-∞ is the area under the plasma drug concentration/time curve from 0 minutes extrapolated to infinity.

IL-6/STAT3 signaling = details: cited from earlier work

| Structure (SMILES) | activity at 10 µM (LNCaP-IL6 [1]) | Difference in cell proliferation @ 10 μM (%) (Selectivity) Δ LNCaP − LNCaPIL6 (LNCaP-IL6 [1]) | activity at 10 µM (LNCaP) | inhibition at 10 µM (STAT1) | activity at 10 µM (DU145 [2]) | Difference in cell proliferation @ 10 μM (%) (Selectivity) Δ LNCaP − DU145 (DU145 [2]) | Selectivity at IC90 against DU145 and LNCaP-IL6 cell proliferation over LNCaP proliferation (DU145 [3]; FIG. 1B dose response curves) | IC50 (DU145 [3]) | IC50 (LNCaP-IL6 [4]) | AUC(0-t) ([5]; 0 min to last quantifiable data point) | AUC(0-inf) ([5]; extrapolated to infinity) | half-life ([5]; read-out: Apparent half-life (converted)) | Inhibition of IL-6/STAT3 signaling (IL-6/STAT3 signaling) |
| --- | --- | --- | --- | --- | --- | --- | --- | --- | --- | --- | --- | --- | --- |
| Cc1ccc(COC23C4=CC(C)CC2CCC3OC4=O)cn1 (stereo in doubt) [Example 1, (4R,5aS,7aS,7bR)-5,5a,6,7,7a,7b-hexahydro-7b-[(6-methyl-3-pyridinyl)methoxy]-4-methyl-indeno[1,7-bc]furan-2(4H)-one] | 8.6% | 54.6% | 63.2% | 14% | 12.9% | 50.3% | – | – | – | – | – | – | – |
| CC1C=C2C(=O)OC3CCC(C1)C23OCc1ccc(Oc2ccccc2)nc1 (stereo in doubt) [Example 2, (4R,5aS,7aS,7bR)-5,5a,6,7,7a,7b-hexahydro-7b-[(6-phenoxy-3-pyridinyl)methoxy]-4-methyl-indeno[1,7-bc]furan-2(4H)-one] | 18% | 68% | 86% | 1% | 36.1% | 49.9% | – | – | – | – | – | – | – |
| CC1C=C2C(=O)OC3CCC(C1)C23OCCc1cccnc1 (stereo in doubt) [Example 3, (4R,5aS,7aS,7bR)-5,5a,6,7,7a,7b-hexahydro-7b-[2-(3-pyridinyl)-ethoxy]-4-methyl-indeno[1,7-bc]furan-2(4H)-one] | 8% | 60.6% | 68.6% | 38% | 18.7% | 49.9% | – | – | – | – | – | – | – |
| Cc1cnc(COC23C4=CC(C)CC2CCC3OC4=O)cn1 (stereo in doubt) [Example 4, (4R,5aS,7aS,7bR)-5,5a,6,7,7a,7b-hexahydro-7b-[(5-methyl-2-pyrazinyl)methoxy]-4-methyl-indeno[1,7-bc]furan-2(4H)-one] | 10.7% | 44.8% | 55.5% | 12% | 11.4% | 44.1% | – | – | – | – | – | – | – |
| COc1ccnc(COC23C4=CC(C)CC2CCC3OC4=O)c1 (stereo in doubt) [Example 5, (4R,5aS,7aS,7bR)-5,5a,6,7,7a,7b-hexahydro-7b-[(4-methoxy-2-pyridinyl)methoxy]-4-methyl-indeno[1,7-bc]furan-2(4H)-one] | 15% | 71% | 86% | 16% | 19% | 67% | – | – | – | – | – | – | – |
| COC(=O)c1cccc(COC23C4=CC(C)CC2CCC3OC4=O)n1 (stereo in doubt) [Example 6, (4R,5aS,7aS,7bR)-5,5a,6,7,7a,7b-hexahydro-7b-[(6-methoxycarbonyl-2-pyridinyl)methoxy]-4-methyl-indeno[1,7-bc]furan-2(4H)-one] | 15.9% | 49.7% | 65.6% | – | 16.6% | 49% | – | – | – | – | – | – | – |
| COc1ncccc1COC12C3=CC(C)CC1CCC2OC3=O (stereo in doubt) [Example 7, (4R,5aS,7aS,7bR)-5,5a,6,7,7a,7b-hexahydro-7b-[(2-methoxy-3-pyridinyl)methoxy]-4-methyl-indeno[1,7-bc]furan-2(4H)-one] | 7% | 52.3% | 59.3% | – | 16.7% | 42.6% | – | – | – | – | – | – | – |
| Cc1ncccc1COC12C3=CC(C)CC1CCC2OC3=O (stereo in doubt) [Example 8, (4R,5aS,7aS,7bR)-5,5a,6,7,7a,7b-hexahydro-7b-[(2-methyl-3-pyridinyl)methoxy]-4-methyl-indeno[1,7-bc]furan-2(4H)-one] | 3% | 51.5% | 54.5% | – | 10% | 44.5% | – | – | – | – | – | – | – |
| Cc1ccc(COC23C4=CC(C)(F)CC2CCC3OC4=O)cn1 (stereo in doubt) [Example 26, (4R,5aS,7aS,7bR)-5,5a,6,7,7a,7b-hexahydro-7b-[(6-methyl-3-pyridinyl)methoxy]-4-fluoro-4-methyl-indeno[1,7-bc]furan-2(4H)-one] | – | – | – | – | – | – | very good selectivity | 1530 nM | 1060 nM | – | – | – | – |
| C[C@@H]1C=C2C(=O)O[C@@H]3CCC(C1)[C@]23OCc1ccc(NC(=O)C(C)(C)C)nc1 (stereo partly drawn) [Example 9, (4R,5aS,7aS,7bR)-5,5a,6,7,7a,7b-hexahydro-7b-[(6-[(2,2-dimethyl-1-oxopropyl)amino]-3-pyridinyl]methoxy]-4-methyl-indeno[1,7-b]c furan-2(4H)-one] | 2.8% | 64.8% | 67.6% | – | 9.7% | 57.9% | – | – | – | – | – | – | – |
| C[C@@H]1C=C2C(=O)O[C@@H]3CCC(C1)[C@]23OCc1ccc(N2CCOCC2)nc1 (stereo partly drawn) [Example 15, (4R,5aS,7aS,7bR)-5,5a,6,7,7a,7b-hexahydro-7b-[(6-(N-morpholino)-3-pyridinyl)methoxy]-4-methyl-indeno[1,7-bc]furan-2(4H)-one] | 6.5% | 69.6% | 76.1% | 53% | 9.6% | 66.6% | – | – | – | – | – | – | – |
| C[C@@H]1C=C2C(=O)O[C@@H]3CC[C@H](C1)[C@]23O [Galiellalactone, (−)-Galiellalactone] | 4.7% | 38.9% | 43.6% | 62% | 10.8% | 32.8% | – | 2520 nM | 1160 nM | 82 ng·h/mL | 87 ng·h/mL | 72 min | submicromolar |
